Data reported in US20170314033A1, “HERBICIDE-RESISTANT TARAXACUM KOK-SAGHYZ AND TARAXACUM BREVICORNICULATUM” (Ohio State Innovation Foundation, priority 2016, published 2017).

Assays:
non-transgenic TK = test: kanamycin selection, elimination of non-transgenic TK; type: in vivo, Taraxacum kok-saghyz; conditions: ½ MS medium, data not shown
Procedure: (§1) Roots then were blotted dry on filter paper and transferred to co-culture medium (solid 1⁄2 MS medium with 200 μm acetosyringone). After 3 days of co-culture with agrobacteria, root fragments were washed sequentially with water and liquid 1⁄2 MS medium with 400 mg L^-1 Timentin, and then transferred to solid 1⁄2 MS medium with 400 mg L^-1 Timentin. […] After 3 weeks further selection, transgene events were validated in selected plants. Root fragments of TK and TB were also inoculated with A. rhizogenes […] wild type using the same method. After recovery, root fragments were transferred to 1⁄2 MS medium with 400 mg L^-1 Timentin for regeneration. Approximately 30 root fragments were used for each replicate and three replicates were used for each treatment. […] Transgene presence was validated by PCR analysis (FIGS. 5A and B) and transgene expression at the transcription level was confirmed by RT-PCR (FIGS. 6A and B) using leaf tissue.

non-transgenic TB = test: kanamycin selection, elimination of non-transgenic TB; type: in vivo, T. brevicorniculatum; conditions: ½ MS medium, data not shown
Procedure: as §1

[1] = test system: transgenic herbicide-resistant rubber-producing dandelions expressing the bar gene; test: glufosinate treatment of mature transgenic (bar gene) plants; type: in vivo, Taraxacum kok-saghyz and Taracum brevicorniculatum; conditions: for survival rate: formulated under the brand BASTA, mature transgenic plants
Text: Applicants show the successful generation of rubber-producing dandelions species, which display resistance to broad leaf herbicide glufosinate. Using similar methods as described in Example 1, transgenic plants were generated using Agrobacterium tumafaciens-mediated transformation of leaf discs or root fragments, followed by regeneration of transgenic plants, which were then acclimated and transferred to pots within greenhouses. The bar gene, was expressed singly or in combination with other genes of interest in two rubber-producing dandelion species, Taraxacum kok-saghyz and Taracum brevicorniculatum. Table 1 describes the list of gene constructs used for the generation of transgenic herbicide-resistant dandelions.
Confirmation of a transgenic event was validated by PCR and resistance confirmed through treatment of mature transgenic plants with varying doses of glufosinate (e.g., 25 mg/L, 50 mg/L, 100 mg/L, 200 mg/L, etc.) formulated under the brand BASTA®. Treatment of plants with glufosinate at 25 mg/L yielded a 100% survival rate, 50 mg/L yielded a 50% survival rate, 150 mg/L yielded a 100% survival rate, and 200 mg/L yielded a 50% survival rate.

[2] = test system: wild-type plants (dandelions); test: glufosinate exposure of wild-type dandelions; type: in vivo; conditions: FIG. 11
Text: FIG. 11: Comparison of wild-type dandelions and exemplary herbicide-resistant rubber-producing dandelions after exposure to herbicide.

| SMILES | kanamycin concentration effective at eliminating non-transgenic plants (non-transgenic TK) | kanamycin concentration effective at eliminating non-transgenic plants (non-transgenic TB) | herbicide tolerance after exposure to glufosinate ([1]; exemplary dandelions of the invention, FIG. 11) | injury as a result of exposure to glufosinate ([1]; exemplary plant of the invention, FIGS. 9-10) | survival rate ([1]; glufosinate at 25 mg/L) | survival rate ([1]; glufosinate at 50 mg/L) | survival rate ([1]; glufosinate at 150 mg/L) | survival rate ([1]; glufosinate at 200 mg/L) | injury when exposed to glufosinate [2] |
| --- | --- | --- | --- | --- | --- | --- | --- | --- | --- |
| NC[C@H]1O[C@H](O[C@H]2[C@H](O)[C@@H](O[C@H]3O[C@H](CO)[C@@H](O)[C@H](N)[C@H]3O)[C@H](N)C[C@@H]2N)[C@H](O)[C@@H](O)[C@@H]1O [kanamycin] | 10 mg/L | 20 mg/L | – | – | – | – | – | – | – |
| CP(=O)(O)CCC(N)C(=O)O (stereo not drawn) [glufosinate] | – | – | varying degrees herbicide tolerance | little to no injury | 100% | 50% | 100% | 50% | significant injury and/or death |
